Measurements taken from ChEMBL document CHEMBL4420076, “Amylin and calcitonin receptor agonist” (2017).
Numbered stars: 1 amine (or outer) side, 2 acyl side, 3 side chain; on linkers, the order of the positions; unused ones are H or OH. Side chains are listed from the residue outwards. Peptide text beside a SMILES is read from it. * marks the point of attachment. C20 diacid = O=C(O)CCCCCCCCCCCCCCCCCCC(=O)*; γGlu = O=C(O)[C@H](CCC(=O)[*:2])N[*:1]; AEEA = NCCOCCOCC(=O)O

How the values were obtained:
Calcitonin receptor [1] = target: T1, Calcitonin receptor (Homo sapiens, UniProt P30988); assay: Displacement of [125I]-labeled human calcitonin from human calcitonin receptor expressed in BHK tkts13 cell membranes incubated for 1 hr by scintillation proximity assay
T1 sequence (P30988 whole entry): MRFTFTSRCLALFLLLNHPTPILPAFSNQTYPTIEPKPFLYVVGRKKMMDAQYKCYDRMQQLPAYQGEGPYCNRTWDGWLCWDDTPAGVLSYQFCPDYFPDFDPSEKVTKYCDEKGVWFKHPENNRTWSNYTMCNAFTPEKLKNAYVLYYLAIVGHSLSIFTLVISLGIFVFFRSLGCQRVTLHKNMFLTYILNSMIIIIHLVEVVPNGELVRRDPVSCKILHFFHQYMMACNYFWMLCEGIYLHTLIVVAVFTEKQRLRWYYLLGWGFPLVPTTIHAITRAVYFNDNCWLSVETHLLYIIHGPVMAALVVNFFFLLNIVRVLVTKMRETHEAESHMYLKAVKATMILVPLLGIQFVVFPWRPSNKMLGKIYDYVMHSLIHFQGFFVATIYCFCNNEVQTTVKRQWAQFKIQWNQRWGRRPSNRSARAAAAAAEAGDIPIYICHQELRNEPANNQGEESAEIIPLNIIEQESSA

[2] = Solubility in 100 mM glycylglycine buffer at pH 4.0 incubated for 18 hrs by UPLC analysis; assay type: physicochemical
[3] = Solubility in 100 mM bistrispropane buffer at pH 7.5 incubated for 18 hrs by UPLC analysis; assay type: physicochemical
[4] = Stability in pH 7.5 buffer assessed as lag time for fibril formation at 1 uM by Thioflavin T based fluorescence assay; assay type: physicochemical; conditions: pH 7.5, 1 µM
Calcitonin receptor [5] = target: T1, Calcitonin receptor; assay: Agonist activity at human calcitonin receptor expressed in BHK570 cells assessed as increase in intracellular cAMP concentration incubated for 3 hrs in absence of albumin by CRE luciferase reporter gene assay; assay type: functional, cell-based
[6] = Stability in pH 7.5 buffer assessed as compound recovery at 1 uM by Thioflavin T based fluorescence assay; assay type: physicochemical; conditions: read-out: Drug recovery
[7] = Solubility in 100 mM bistrispropane buffer at pH 6.5 incubated for 18 hrs by UPLC analysis; assay type: physicochemical
[8] = Solubility in 100 mM glycylglycine buffer at pH 5.0 incubated for 18 hrs by UPLC analysis; assay type: physicochemical
[9] = Solubility in 100 mM glycylglycine buffer at pH 3.0 incubated for 18 hrs by UPLC analysis; assay type: physicochemical
[10] = target: T2, Amylin receptor AMY3; CALCR/RAMP3 (Homo sapiens, UniProt O60896+P30988); assay: Agonist activity at human amylin receptor expressed in BHK570 cells co-expressing RAMP3 assessed as increase in intracellular cAMP concentration incubated for 3 hrs in presence of 10% FBS by CRE luciferase reporter gene assay; assay type: functional, cell-based
T2 sequence (P30988 whole entry): T1 sequence (P30988 whole entry)
T2 sequence (O60896 whole entry): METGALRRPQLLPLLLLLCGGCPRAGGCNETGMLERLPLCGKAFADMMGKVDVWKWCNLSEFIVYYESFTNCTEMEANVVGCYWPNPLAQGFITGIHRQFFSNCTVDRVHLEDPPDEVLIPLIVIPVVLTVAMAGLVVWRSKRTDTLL

[11] = Solubility in 100 mM bistrispropane buffer at pH 7.0 incubated for 18 hrs by UPLC analysis; assay type: physicochemical
[12] = target: T3, Amylin receptor AMY3; CALCR/RAMP3 (Rattus norvegicus, UniProt P32214+Q9JJ73); assay: Displacement of [125I]-labeled rat amylin from rat amylin receptor expressed in BHK tkts13 cell membranes co-expressing RAMP3 incubated for 120 mins by scintillation proximity assay
T3 sequence (P32214 whole entry): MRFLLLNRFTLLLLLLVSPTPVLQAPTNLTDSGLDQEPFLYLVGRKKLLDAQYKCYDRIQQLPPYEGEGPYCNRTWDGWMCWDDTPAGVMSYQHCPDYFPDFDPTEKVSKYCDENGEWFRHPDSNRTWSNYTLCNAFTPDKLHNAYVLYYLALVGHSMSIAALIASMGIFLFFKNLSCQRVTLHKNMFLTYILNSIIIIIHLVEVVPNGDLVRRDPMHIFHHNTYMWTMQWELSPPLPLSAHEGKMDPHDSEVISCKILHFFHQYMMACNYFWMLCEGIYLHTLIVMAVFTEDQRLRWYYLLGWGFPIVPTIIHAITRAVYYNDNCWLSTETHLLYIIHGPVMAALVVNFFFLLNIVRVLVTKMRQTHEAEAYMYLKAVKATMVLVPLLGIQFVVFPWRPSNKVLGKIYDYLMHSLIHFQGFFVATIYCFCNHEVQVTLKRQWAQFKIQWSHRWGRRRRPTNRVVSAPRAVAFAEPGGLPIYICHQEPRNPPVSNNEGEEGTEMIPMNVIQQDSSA
T3 sequence (Q9JJ73 whole entry): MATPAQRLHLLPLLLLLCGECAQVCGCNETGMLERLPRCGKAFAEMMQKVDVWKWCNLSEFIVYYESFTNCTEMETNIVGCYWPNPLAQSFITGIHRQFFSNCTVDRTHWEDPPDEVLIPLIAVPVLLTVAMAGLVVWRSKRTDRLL

[13] = Solubility in 100 mM bistrispropane buffer at pH 8.0 incubated for 18 hrs by UPLC analysis; assay type: physicochemical
[14] = Solubility in 100 mM bistrispropane buffer at pH 6.0 incubated for 18 hrs by UPLC analysis; assay type: physicochemical
Calcitonin receptor [15] = target: T1, Calcitonin receptor; assay: Agonist activity at human calcitonin receptor expressed in BHK570 cells assessed as increase in intracellular cAMP concentration incubated for 3 hrs in presence of 10% FBS by CRE luciferase reporter gene assay; assay type: functional, cell-based
[16] = target: T2, Amylin receptor AMY3; CALCR/RAMP3; assay: Agonist activity at human amylin receptor expressed in BHK570 cells co-expressing RAMP3 assessed as increase in intracellular cAMP concentration incubated for 3 hrs in absence of albumin by CRE luciferase reporter gene assay; assay type: functional, cell-based

SMILES | IC50 (Calcitonin receptor [1]) [pM] | solubility at 18 h [2] [µM] | solubility at 18 h [3] [µM] | Time [4] [h] | EC50 (Calcitonin receptor [5]) [pM] | remaining at 1 µM [6] [%] | solubility at 18 h [7] [µM] | solubility at 18 h [8] [µM] | solubility at 18 h [9] [µM] | EC50 [10] [pM] | solubility at 18 h [11] [µM] | IC50 [12] [pM] | solubility at 18 h [13] [µM] | solubility at 18 h [14] [µM] | EC50 (Calcitonin receptor [15]) [pM] | EC50 [16] [pM]
CC(C)C[C@H](NC(=O)[C@H](C)NC(=O)[C@H](C)NC(=O)[C@@H](NC(=O)[C@H](CO)NC(=O)[C@H](CC(C)C)NC(=O)[C@H](CCC(=O)O)NC(=O)[C@H](CO)NC(=O)[C@H](C)N)[C@@H](C)O)C(=O)NCC(=O)N[C@@H](CCCNC(=N)N)C(=O)N[C@@H](CC(C)C)C(=O)N[C@@H](CO)C(=O)N[C@@H](C)C(=O)N[C@@H](CCC(=O)O)C(=O)N[C@@H](CC(C)C)C(=O)N[C@@H](Cc1cnc[nH]1)C(=O)N[C@@H](CCCCNC(=O)CC[C@H](NC(=O)CCCCCCCCCCCCCCCCCCC(=O)O)C(=O)O)C(=O)N[C@@H](CC(C)C)C(=O)N[C@@H](C)C(=O)N[C@H](C(=O)N[C@@H](CC(C)C)C(=O)N1CCC[C@H]1C(=O)N[C@@H](CCCNC(=N)N)C(=O)N[C@H](C(=O)N[C@@H](CCC(=O)O)C(=O)N[C@H](C(=O)NCC(=O)N[C@@H](CO)C(=O)NCC(=O)N[C@@H](CO)C(=O)N1CCC[C@H]1C(N)=O)[C@@H](C)O)[C@@H](C)O)[C@@H](C)O (H-ASELSTAALGRLSAELHK([γGlu-C20 diacid])LATLPRTETGSGSP-NH2) | 85 | ≥ 200 | ≥ 200 | > 45 | 19 | 100 | ≥ 200 | ≥ 200 | ≥ 200 | 49 | ≥ 200 | 455 | ≥ 200 | ≥ 200 | 28 | –
CC(C)C[C@H](NC(=O)[C@H](C)NC(=O)[C@H](C)NC(=O)[C@@H](NC(=O)[C@H](CO)NC(=O)[C@H](CC(C)C)NC(=O)[C@H](CCC(=O)O)NC(=O)[C@H](CO)NC(=O)[C@H](C)NC(=O)COCCOCCNC(=O)CC[C@H](NC(=O)CCCCCCCCCCCCCCCCCCC(=O)O)C(=O)O)[C@@H](C)O)C(=O)NCC(=O)N[C@@H](CCCNC(=N)N)C(=O)N[C@@H](CC(C)C)C(=O)N[C@@H](CO)C(=O)N[C@@H](C)C(=O)N[C@@H](CCC(=O)O)C(=O)N[C@@H](CC(C)C)C(=O)N[C@@H](Cc1cnc[nH]1)C(=O)N[C@@H](CCC(=O)O)C(=O)N[C@@H](CC(C)C)C(=O)N[C@@H](C)C(=O)N[C@H](C(=O)N[C@@H](CC(C)C)C(=O)N1CCC[C@H]1C(=O)N[C@@H](CCCNC(=N)N)C(=O)N[C@H](C(=O)N[C@@H](CCC(=O)O)C(=O)N[C@H](C(=O)NCC(=O)N[C@@H](CO)C(=O)NCC(=O)N[C@@H](CO)C(=O)N1CCC[C@H]1C(N)=O)[C@@H](C)O)[C@@H](C)O)[C@@H](C)O ({C20 diacid-γGlu-AEEA}-ASELSTAALGRLSAELHELATLPRTETGSGSP-NH2) | 85 | ≥ 200 | ≥ 200 | > 45 | 18 | 100 | ≥ 200 | ≥ 200 | ≥ 200 | 73 | ≥ 200 | 146 | ≥ 200 | ≥ 200 | 30 | 27
